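Five compound concentrations were applied to cells in 96-well plates for 48 hours; endpoints were derived by simple linear interpolation of the resulting dose-response curve. At the GI50, growth is halved. TGI: concentration producing complete growth inhibition.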
Legend:
Test in all cases: NCI-60 cell line screen, 48 h
A498 renal = tested on: A498 renal
A549 NSCLC = tested on: A549 NSCLC
ACHN renal = tested on: ACHN renal
CCRF-CEM leukemia = tested on: CCRF-CEM leukemia
COLO 205 colon = tested on: COLO 205 colon
DLD-1 colon = tested on: DLD-1 colon
DMS 114 small cell lung = tested on: DMS 114 small cell lung
DMS 273 small cell lung = tested on: DMS 273 small cell lung
EKVX NSCLC = tested on: EKVX NSCLC
HCC-2998 colon = tested on: HCC-2998 colon
HCT-116 colon = tested on: HCT-116 colon
HCT-15 colon = tested on: HCT-15 colon
HL-60(TB) leukemia = tested on: HL-60(TB) leukemia
HOP-62 NSCLC = tested on: HOP-62 NSCLC
HOP-92 NSCLC = tested on: HOP-92 NSCLC
HT29 colon = tested on: HT29 colon
IGROV1 ovarian = tested on: IGROV1 ovarian
KM12 colon = tested on: KM12 colon
KM20L2 colon = tested on: KM20L2 colon
LOX IMVI melanoma = tested on: LOX IMVI melanoma
LXFL 529 NSCLC = tested on: LXFL 529 NSCLC
M14 melanoma = tested on: M14 melanoma
M19-MEL melanoma = tested on: M19-MEL melanoma
MALME-3M melanoma = tested on: MALME-3M melanoma
MOLT-4 leukemia = tested on: MOLT-4 leukemia
NCI-H226 lung = tested on: NCI-H226 lung
NCI-H23 lung = tested on: NCI-H23 lung
NCI-H460 lung = tested on: NCI-H460 lung
NCI-H522 lung = tested on: NCI-H522 lung
OVCAR-3 ovarian = tested on: OVCAR-3 ovarian
OVCAR-4 ovarian = tested on: OVCAR-4 ovarian
OVCAR-5 ovarian = tested on: OVCAR-5 ovarian
OVCAR-8 ovarian = tested on: OVCAR-8 ovarian
RPMI-8226 leukemia = tested on: RPMI-8226 leukemia
RXF 393 renal = tested on: RXF 393 renal
SF-268 CNS = tested on: SF-268 CNS
SF-295 CNS = tested on: SF-295 CNS
SF-539 CNS = tested on: SF-539 CNS
SK-MEL-2 melanoma = tested on: SK-MEL-2 melanoma
SK-MEL-28 melanoma = tested on: SK-MEL-28 melanoma
SK-MEL-5 melanoma = tested on: SK-MEL-5 melanoma
SK-OV-3 ovarian = tested on: SK-OV-3 ovarian
SN12C renal = tested on: SN12C renal
SNB-19 CNS = tested on: SNB-19 CNS
SNB-75 CNS = tested on: SNB-75 CNS
SNB-78 CNS = tested on: SNB-78 CNS
SR leukemia = tested on: SR leukemia
SW-620 colon = tested on: SW-620 colon
TK-10 renal = tested on: TK-10 renal
U251 CNS = tested on: U251 CNS
UACC-257 melanoma = tested on: UACC-257 melanoma
UACC-62 melanoma = tested on: UACC-62 melanoma
XF 498 CNS = tested on: XF 498 CNS
786-0 renal = tested on: 786-0 renal
CAKI-1 renal = tested on: CAKI-1 renal
K-562 leukemia = tested on: K-562 leukemia
UO-31 renal = tested on: UO-31 renal

NCCSCC(N)C(=O)O (stereo not given)
TGI (A498 renal): > 497 µM
GI50 (A549 NSCLC): > 497 µM
TGI (A549 NSCLC): > 497 µM
GI50 (ACHN renal): > 497 µM
TGI (ACHN renal): > 497 µM
GI50 (CCRF-CEM leukemia): > 497 µM
TGI (CCRF-CEM leukemia): > 497 µM
GI50 (COLO 205 colon): > 497 µM
TGI (COLO 205 colon): > 497 µM
TGI (DLD-1 colon): > 497 µM
TGI (DMS 114 small cell lung): > 497 µM
TGI (DMS 273 small cell lung): > 497 µM
TGI (EKVX NSCLC): > 497 µM
TGI (HCC-2998 colon): > 497 µM
GI50 (HCT-116 colon): > 497 µM
TGI (HCT-116 colon): > 497 µM
GI50 (HCT-15 colon): > 497 µM
TGI (HCT-15 colon): > 497 µM
TGI (HL-60(TB) leukemia): > 497 µM
TGI (HOP-62 NSCLC): > 497 µM
TGI (HOP-92 NSCLC): > 497 µM
GI50 (HT29 colon): > 497 µM
TGI (HT29 colon): > 497 µM
GI50 (IGROV1 ovarian): > 497 µM
TGI (IGROV1 ovarian): > 497 µM
GI50 (KM12 colon): > 497 µM
TGI (KM12 colon): > 497 µM
TGI (KM20L2 colon): > 497 µM
TGI (LOX IMVI melanoma): > 497 µM
TGI (LXFL 529 NSCLC): > 497 µM
TGI (M14 melanoma): > 497 µM
TGI (M19-MEL melanoma): > 497 µM
GI50 (MALME-3M melanoma): > 497 µM
TGI (MALME-3M melanoma): > 497 µM
TGI (MOLT-4 leukemia): > 497 µM
TGI (NCI-H226 lung): > 497 µM
TGI (NCI-H23 lung): > 497 µM
GI50 (NCI-H460 lung): > 497 µM
TGI (NCI-H460 lung): > 497 µM
GI50 (NCI-H522 lung): > 497 µM
TGI (NCI-H522 lung): > 497 µM
GI50 (OVCAR-3 ovarian): > 497 µM
TGI (OVCAR-3 ovarian): > 497 µM
TGI (OVCAR-4 ovarian): > 497 µM
TGI (OVCAR-5 ovarian): > 497 µM
TGI (OVCAR-8 ovarian): > 497 µM
GI50 (RPMI-8226 leukemia): > 497 µM
TGI (RPMI-8226 leukemia): > 497 µM
TGI (RXF 393 renal): > 497 µM
TGI (SF-268 CNS): > 497 µM
TGI (SF-295 CNS): > 497 µM
TGI (SF-539 CNS): > 497 µM
TGI (SK-MEL-2 melanoma): > 497 µM
TGI (SK-MEL-28 melanoma): > 497 µM
GI50 (SK-MEL-5 melanoma): > 497 µM
TGI (SK-MEL-5 melanoma): > 497 µM
TGI (SK-OV-3 ovarian): > 497 µM
TGI (SN12C renal): > 497 µM
TGI (SNB-19 CNS): > 497 µM
GI50 (SNB-75 CNS): 470 µM
TGI (SNB-75 CNS): > 497 µM
TGI (SNB-78 CNS): > 497 µM
TGI (SR leukemia): > 497 µM
GI50 (SW-620 colon): > 497 µM
TGI (SW-620 colon): > 497 µM
TGI (TK-10 renal): > 497 µM
TGI (U251 CNS): > 497 µM
TGI (UACC-257 melanoma): > 497 µM
TGI (UACC-62 melanoma): > 497 µM
TGI (XF 498 CNS): > 497 µM

Cn1cccc(C(=O)c2ccccc2)c1=O
TGI (786-0 renal): > 100 µM
TGI (A549 NSCLC): > 100 µM
TGI (ACHN renal): > 100 µM
TGI (CAKI-1 renal): > 100 µM
TGI (CCRF-CEM leukemia): > 100 µM
TGI (COLO 205 colon): > 100 µM
TGI (DLD-1 colon): > 100 µM
TGI (DMS 114 small cell lung): > 100 µM
TGI (DMS 273 small cell lung): > 100 µM
TGI (EKVX NSCLC): > 100 µM
TGI (HCC-2998 colon): > 100 µM
TGI (HCT-116 colon): > 100 µM
TGI (HCT-15 colon): > 100 µM
TGI (HL-60(TB) leukemia): > 100 µM
TGI (HOP-62 NSCLC): > 100 µM
TGI (HOP-92 NSCLC): > 100 µM
TGI (HT29 colon): > 100 µM
TGI (IGROV1 ovarian): > 100 µM
TGI (K-562 leukemia): > 100 µM
TGI (KM12 colon): > 100 µM
TGI (KM20L2 colon): > 100 µM
TGI (LOX IMVI melanoma): > 100 µM
TGI (LXFL 529 NSCLC): > 100 µM
TGI (M14 melanoma): > 100 µM
TGI (M19-MEL melanoma): > 100 µM
TGI (MALME-3M melanoma): > 100 µM
TGI (MOLT-4 leukemia): > 100 µM
TGI (NCI-H226 lung): > 100 µM
TGI (NCI-H23 lung): > 100 µM
TGI (NCI-H460 lung): > 100 µM
TGI (NCI-H522 lung): > 100 µM
TGI (OVCAR-3 ovarian): > 100 µM
TGI (OVCAR-4 ovarian): > 100 µM
TGI (OVCAR-5 ovarian): > 100 µM
TGI (OVCAR-8 ovarian): > 100 µM
TGI (RPMI-8226 leukemia): > 100 µM
TGI (RXF 393 renal): > 100 µM
TGI (SF-268 CNS): > 100 µM
TGI (SF-295 CNS): > 100 µM
TGI (SF-539 CNS): > 100 µM
TGI (SK-MEL-2 melanoma): > 100 µM
TGI (SK-MEL-28 melanoma): > 100 µM
TGI (SK-MEL-5 melanoma): > 100 µM
TGI (SK-OV-3 ovarian): > 100 µM
TGI (SN12C renal): > 100 µM
TGI (SNB-19 CNS): > 100 µM
TGI (SNB-75 CNS): > 100 µM
TGI (SNB-78 CNS): > 100 µM
TGI (SR leukemia): > 100 µM
TGI (SW-620 colon): > 100 µM
TGI (TK-10 renal): > 100 µM
TGI (U251 CNS): > 100 µM
TGI (UACC-257 melanoma): > 100 µM
TGI (UACC-62 melanoma): > 100 µM
TGI (UO-31 renal): > 100 µM
TGI (XF 498 CNS): > 100 µM

C=CCN1C(=O)C(=O)N(CC=C)C(=O)C1=O
TGI (786-0 renal): > 100 µM
TGI (A498 renal): > 100 µM
TGI (A549 NSCLC): > 100 µM
TGI (CAKI-1 renal): > 100 µM
TGI (CCRF-CEM leukemia): > 100 µM
TGI (COLO 205 colon): > 100 µM
TGI (DLD-1 colon): > 100 µM
TGI (DMS 114 small cell lung): > 100 µM
TGI (DMS 273 small cell lung): > 100 µM
TGI (EKVX NSCLC): > 100 µM
TGI (HCC-2998 colon): > 100 µM
TGI (HCT-116 colon): > 100 µM
TGI (HCT-15 colon): > 100 µM
TGI (HL-60(TB) leukemia): > 100 µM
TGI (HOP-62 NSCLC): > 100 µM
TGI (HOP-92 NSCLC): > 100 µM
TGI (HT29 colon): > 100 µM
TGI (IGROV1 ovarian): > 100 µM
TGI (K-562 leukemia): > 100 µM
TGI (KM12 colon): > 100 µM
TGI (KM20L2 colon): > 100 µM
TGI (LOX IMVI melanoma): > 100 µM
TGI (LXFL 529 NSCLC): > 100 µM
TGI (M14 melanoma): > 100 µM
TGI (M19-MEL melanoma): > 100 µM
TGI (MALME-3M melanoma): > 100 µM
TGI (MOLT-4 leukemia): > 100 µM
TGI (NCI-H226 lung): > 100 µM
TGI (NCI-H23 lung): > 100 µM
TGI (NCI-H460 lung): > 100 µM
TGI (NCI-H522 lung): > 100 µM
TGI (OVCAR-3 ovarian): > 100 µM
TGI (OVCAR-4 ovarian): > 100 µM
TGI (OVCAR-5 ovarian): > 100 µM
TGI (OVCAR-8 ovarian): > 100 µM
TGI (RPMI-8226 leukemia): > 100 µM
TGI (RXF 393 renal): > 100 µM
TGI (SF-268 CNS): > 100 µM
TGI (SF-295 CNS): > 100 µM
TGI (SF-539 CNS): > 100 µM
TGI (SK-MEL-5 melanoma): > 100 µM
TGI (SK-OV-3 ovarian): > 100 µM
TGI (SN12C renal): > 100 µM
TGI (SNB-19 CNS): > 100 µM
TGI (SNB-75 CNS): > 100 µM
TGI (SNB-78 CNS): > 100 µM
TGI (SR leukemia): > 100 µM
TGI (SW-620 colon): > 100 µM
TGI (TK-10 renal): > 100 µM
TGI (U251 CNS): > 100 µM
TGI (UACC-257 melanoma): > 100 µM
TGI (UACC-62 melanoma): > 100 µM
TGI (UO-31 renal): > 100 µM
TGI (XF 498 CNS): > 100 µM

Reference: PubChem BioAssay (NCI)
